From the supplement of paper PMC10307832

Tests used:
Assay in all cases: relative viability (nuclei count vs DMSO), 5 days (fraction); higher = more cells survive
[1] = compound: C[C@]12O[C@H](C[C@]1(O)CO)n1c3ccccc3c3c4c(c5c6ccccc6n2c5c31)CNC4=O [Lestaurtinib] + N=C(N)NC(=N)NCCc1ccccc1 [Phenformin] (partner 250 µM)
Outline: (§1)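 The day after seeding in 1536-well plates, lung cancer cell lines were treated by pin tool with a single drug, or with a fixed anchor-drug dose together with five library-drug doses (not always all listed) in √10 steps. After 5 days, a combined fix-and-stain solution (final 0.05% Triton X-100, 1% formaldehyde, 1 ug/ml Hoechst) was added. Nuclei counted on 4× images gave relative viability as treated counts over vehicle counts, reported as the median of duplicate plates.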

[2] = compound: C1/C(=C\C2=CC=CS2)/C(=O)/C(=C/C3=CC=CS3)/C1 + CC(=O)Nc1cccc(-n2c(=O)n(C3CC3)c(=O)c3c(Nc4ccc(I)cc4F)n(C)c(=O)c(C)c32)c1 [Trametinib] (partner 0.02 µM)
Outline: as §1

[3] = compound: C1=CC(=CC=C1C2=CC(=C(S2)NC(=O)N)C(=O)N)F [TPCA-1] + Cc1nc(NC(=O)N2CCC[C@H]2C(N)=O)sc1-c1ccnc(C(C)(C)C(F)(F)F)c1 [Alpelisib] (partner 2 µM)
Outline: as §1

[4] = compound: C1/C(=C\C2=CC=CS2)/C(=O)/C(=C/C3=CC=CS3)/C1 + CS(=O)(=O)N1CCN(Cc2cc3nc(-c4cccc5[nH]ncc45)nc(N4CCOCC4)c3s2)CC1 [Pictilisib] (partner 1 µM)
Outline: as §1

| Cell Line | relative viability ([1]; first compound 0.005 µM) | relative viability ([1]; first compound 0.01581 µM) | relative viability ([1]; first compound 0.05 µM) | relative viability ([1]; first compound 0.1581 µM) | relative viability ([1]; first compound 0.5 µM) | relative viability ([2]; first compound 0.2 µM) | relative viability ([2]; first compound 0.6325 µM) | relative viability ([2]; first compound 2 µM) | relative viability ([2]; first compound 6.325 µM) | relative viability ([2]; first compound 20 µM) | relative viability ([3]; first compound 0.04 µM) | relative viability ([3]; first compound 0.1265 µM) | relative viability ([3]; first compound 0.4 µM) | relative viability ([3]; first compound 1.265 µM) | relative viability ([3]; first compound 4 µM) | relative viability ([4]; first compound 0.2 µM) | relative viability ([4]; first compound 0.6325 µM) | relative viability ([4]; first compound 2 µM) | relative viability ([4]; first compound 6.325 µM) | relative viability ([4]; first compound 20 µM) |
| --- | --- | --- | --- | --- | --- | --- | --- | --- | --- | --- | --- | --- | --- | --- | --- | --- | --- | --- | --- | --- |
| LCLC-103H | 0.336 | 0.379 | 0.327 | 0.288 | 0.234 | 0.664 | 0.701 | 0.678 | 0.595 | 0.63 | 1.06 | 0.901 | 0.992 | 1 | 1.03 | 0.573 | 0.57 | 0.757 | 0.483 | 0.551 |
| LK-2 | 0.542 | 0.738 | 0.275 | 0.233 | 0.217 | 0.643 | 0.968 | 0.809 | 0.712 | 0.707 | 1.23 | 0.758 | 0.946 | 0.692 | 0.627 | 0.521 | 0.635 | 0.487 | 0.491 | 0.561 |
| LOU-NH91 | 0.677 | 0.722 | 0.647 | 0.506 | 0.362 | 0.777 | 0.775 | 0.781 | 0.75 | 0.806 | 0.769 | 0.652 | 0.736 | 0.78 | 0.669 | 0.522 | 0.502 | 0.508 | 0.524 | 0.481 |
| LU99A | 0.819 | 0.76 | 0.627 | 0.438 | 0.315 | 0.626 | 0.558 | 0.555 | 0.495 | 0.497 | 0.564 | 0.445 | 0.5 | 0.388 | 0.243 | 0.345 | 0.403 | 0.303 | 0.276 | 0.353 |
| NCI-H522 | 0.722 | 0.614 | 0.634 | 0.552 | 0.525 | 0.726 | 0.728 | 0.715 | 0.739 | 0.767 |  |  |  |  |  |  |  |  |  |  |
| NCI-H1299 |  |  |  |  |  |  |  |  |  |  | 1.11 | 1.09 | 1.05 | 1.04 | 1.1 | 0.79 | 0.863 | 0.806 | 0.758 | 0.799 |
| NCI-H1563 | 0.625 | 0.711 | 0.677 | 0.577 | 0.58 |  |  |  |  |  | 0.976 | 0.932 | 0.897 | 0.993 | 0.911 | 0.753 | 0.678 | 0.634 | 0.662 | 0.636 |
| NCI-H1623 | 0.609 | 0.593 | 0.557 | 0.525 | 0.51 |  |  |  |  |  |  |  |  |  |  |  |  |  |  |  |
| NCI-H1648 |  |  |  |  |  | 0.604 | 0.628 | 0.435 | 0.417 | 0.256 |  |  |  |  |  |  |  |  |  |  |
| NCI-H1650 | 0.419 | 0.511 | 0.424 | 0.373 | 0.151 | 0.619 | 0.679 | 0.548 | 0.627 | 0.516 |  |  |  |  |  | 0.618 | 0.584 | 0.672 | 0.567 | 0.598 |
| NCI-H1703 |  |  |  |  |  |  |  |  |  |  | 0.336 | 0.3 | 0.304 | 0.233 | 0.207 | 0.278 | 0.247 | 0.259 | 0.227 | 0.248 |
| NCI-H2342 | 0.545 | 0.656 | 0.551 | 0.652 | 0.613 | 0.859 | 0.819 | 0.801 | 0.672 | 0.899 |  |  |  |  |  |  |  |  |  |  |
| SW 900 | 0.69 | 0.715 | 0.63 | 0.803 | 0.4 | 0.739 | 0.752 | 0.815 | 0.308 | 0.734 |  |  |  |  |  |  |  |  |  |  |
